Results from the NIST ThermoML archive (doi:10.1021/je700339f).
± gives the expanded uncertainty stated by the source.

Assay: xn = mol fraction of the nth substance listed
Settings: 298.15 K, Liquid

ClCCCl [1,2-dichloroethane] + CN(C)C=O
mass density [kg/m3]
Settings	x2 = 0.0805	x2 = 0.1978	x2 = 0.302	x2 = 0.397	x2 = 0.4988	x2 = 0.6023	x2 = 0.7054	x2 = 0.8005	x2 = 0.9071
100 kPa	1221.2 ± 6	1186.2 ± 6	1154.9 ± 6	1126.5 ± 6	1095.7 ± 6.1	1064.5 ± 6	1033.6 ± 6	1005.2 ± 6	972.8 ± 6.1
500 kPa	1221.5 ± 6	1186.6 ± 6	1155.2 ± 6	1126.8 ± 6	1096 ± 6.1	1064.8 ± 6	1033.9 ± 6	1005.5 ± 6	973.1 ± 6.1
1000 kPa	1222 ± 6	1187 ± 6	1155.7 ± 6	1127.2 ± 6	1096.4 ± 6.3	1062.2 ± 6	1034.3 ± 5.7	1005.8 ± 6.1	973.3 ± 6.1
1500 kPa	1222.5 ± 6	1187.5 ± 6	1156.2 ± 6	1127.6 ± 6.1	1096.8 ± 6.1	1065.6 ± 6	1034.7 ± 6	1006.2 ± 6.1	973.7 ± 6.1
2000 kPa	1223 ± 6	1188 ± 6	1156.6 ± 6	1128 ± 6.1	1097.2 ± 6.1	1065.9 ± 6	1035 ± 6	1006.5 ± 6.1	974 ± 6.1
2500 kPa	1223.4 ± 6	1188.4 ± 6	1156.9 ± 6	1128.4 ± 6	1097.6 ± 6.1	1066.4 ± 6	1035.4 ± 6	1006.9 ± 6.1	974.3 ± 6.1
3000 kPa	1223.9 ± 6	1188.8 ± 6	1157.4 ± 6.1	1128.8 ± 6.1	1098 ± 6.1	1066.7 ± 6	1035.7 ± 6	1007.2 ± 6.1	974.6 ± 6.1
3500 kPa	1224.3 ± 6	1189.3 ± 6	1157.8 ± 6.1	1129.3 ± 6.1	1098.3 ± 6.1	1067 ± 6	1036.1 ± 6	1007.6 ± 6.1	974.9 ± 6.1
4000 kPa	1224.8 ± 6	1189.7 ± 6	1158.2 ± 6.1	1129.6 ± 6.1	1098.7 ± 6.1	1067.4 ± 6	1036.4 ± 6	1007.9 ± 6.1	975.2 ± 6.1
4500 kPa	1225.3 ± 6	1190.1 ± 6.1	1158.6 ± 6.1	1130.1 ± 6.1	1099.2 ± 6.1	1067.8 ± 6.1	1036.7 ± 6	1008.2 ± 6.1	975.5 ± 6.1
5000 kPa	1225.8 ± 6	1190.6 ± 6.1	1159.1 ± 6.1	1130.4 ± 6.1	1099.5 ± 6.1	1068.2 ± 6.1	1037.1 ± 6	1008.5 ± 6.1	975.9 ± 6.1
5500 kPa	1226.3 ± 6.1	1191 ± 6.1	1159.5 ± 6.1	1130.9 ± 6.1	1099.8 ± 6.1	1068.5 ± 6.1	1037.4 ± 6	1008.9 ± 6.1	976.2 ± 6.1
6000 kPa	1226.7 ± 6.1	1191.5 ± 6.1	1159.9 ± 6.1	1131.4 ± 6.1	1100.2 ± 6.1	1068.8 ± 6.1	1037.7 ± 6	1009.2 ± 6.1	976.5 ± 6.1
6500 kPa	1227.1 ± 6.1	1191.9 ± 6.1	1160.3 ± 6.1	1131.6 ± 6.1	1100.6 ± 6.1	1069.3 ± 6.1	1038.1 ± 6	1009.5 ± 6.1	976.8 ± 6.1
7000 kPa	1227.6 ± 6.1	1192.3 ± 6.1	1160.8 ± 6.1	1132.1 ± 6.1	1101 ± 6.1	1069.6 ± 6.1	1038.5 ± 6	1009.8 ± 6.1	977.1 ± 6.1
7500 kPa	1228 ± 6.1	1192.7 ± 6.1	1161.2 ± 6.1	1132.5 ± 6.1	1101.4 ± 6.1	1070 ± 6.1	1038.8 ± 6	1010.2 ± 6.1	977.4 ± 6.2
8000 kPa	1228.5 ± 6.1	1193.2 ± 6.1	1161.6 ± 6.1	1132.8 ± 6.1	1101.8 ± 6.1	1070.3 ± 6.1	1039.2 ± 6	1010.5 ± 6.1	977.8 ± 6.1
8500 kPa	1228.9 ± 6.1	1193.7 ± 6.1	1161.9 ± 6.1	1133.2 ± 6.1	1102.1 ± 6.1	1070.7 ± 6.1	1039.5 ± 6.1	1010.8 ± 6.1	978.2 ± 6.1
9000 kPa	1229.3 ± 6.1	1194 ± 6.1	1162.4 ± 6.1	1133.7 ± 6.1	1102.5 ± 6.1	1071.1 ± 6.1	1039.9 ± 6.1	1011.2 ± 6.1	978.4 ± 6.2
9500 kPa	1229.8 ± 6.1	1194.5 ± 6.1	1162.8 ± 6.1	1134 ± 6.1	1102.9 ± 6.1	1071.4 ± 6.1	1040.2 ± 6.1	1011.5 ± 6.1	978.7 ± 6.2
9900 kPa	–	–	–	–	–	–	–	1011.8 ± 6.1	–
10000 kPa	1230.4 ± 6.1	1195 ± 6.1	1163.2 ± 6.1	–	–	–	–	–	–
